Literature values, collected in patent US20070059297A1, “Methods and compositions for improving visual acuity” (Nestec, S.A., priority 2005, published 2007).

Test system: rat retina neuronal cells
Settings: in vitro incubation

DHA content of cells incubated with DHA versus cells incubated with other fatty acids: four- to six-fold more DHA
Compound: CC/C=C\C/C=C\C/C=C\C/C=C\C/C=C\C/C=C\CCC(=O)O [DHA, docosahexaenoic acid]
